21 molecules from ChEMBL document CHEMBL1153943, “Exploring the pharmacokinetic properties of phosphorus-containing selective HDAC 1 and 2 inhibitors (SHI-1:2)” (Bioorg Med Chem Lett, 2009) can be followed below.

pIC50: −log10 of the molar value. Active and inactive are the calls of the source. The calls are words filed in the database; no cut-off is given here. Some results are limits rather than exact numbers.

Data set [1] deals with Histone deacetylase 1 (Homo sapiens, UniProt Q13547). The experiment in a line: Inhibition of HDAC1.
Sequence of Histone deacetylase 1 (Q13547 whole entry): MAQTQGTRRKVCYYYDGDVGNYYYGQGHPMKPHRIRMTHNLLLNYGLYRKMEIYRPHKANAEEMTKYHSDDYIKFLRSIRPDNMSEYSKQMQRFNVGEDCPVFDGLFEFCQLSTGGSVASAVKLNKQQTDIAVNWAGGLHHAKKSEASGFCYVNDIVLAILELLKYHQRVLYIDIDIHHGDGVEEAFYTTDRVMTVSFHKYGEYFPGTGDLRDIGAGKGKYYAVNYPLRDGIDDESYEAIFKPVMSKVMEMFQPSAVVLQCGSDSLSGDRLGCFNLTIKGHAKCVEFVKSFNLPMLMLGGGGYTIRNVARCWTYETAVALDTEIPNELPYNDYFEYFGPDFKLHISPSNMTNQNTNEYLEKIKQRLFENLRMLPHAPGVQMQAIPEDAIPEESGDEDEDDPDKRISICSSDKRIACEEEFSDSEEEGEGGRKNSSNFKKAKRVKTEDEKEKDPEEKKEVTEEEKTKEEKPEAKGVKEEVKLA
The nature of data set [2]: Cmax in mouse at 150 mg/kg, po. Format: ADME, organism-based. More on the design: dose 150 mg/kg, route oral. The following applies: in vivo.
The nature of data set [3]: AUC in mouse at 150 mg/kg, po. Type of data set: ADME, organism-based, Plasma. Further details: dose 150 mg/kg, route oral. The settings on record: whole blood.
The subject of data set [4] is HCT-116. The experiment in a line: Antiproliferative activity against human HCT116 cells after 72 hrs. Format: functional. The following applies: HCT-116, 72 h.
Data set [5] concerns Mus musculus. The experiment in a line: Effect on histone H2B acetylation in human HCT116 cells xenografted in CD1 mouse assessed as change in ratio of acetylated to deacetylated histone level at 150 mg/kg, po QD for 3 days measured after 24 hrs. Type of data set: functional, organism-based. More on the design: dose 150 mg/kg. The settings on record: HCT-116.
Data set [6] in a line: Oral bioavailability in Sprague-Dawley rat. The following applies: in vivo. Type of data set: ADME, organism-based.
A short description of data set [7]: Plasma concentration in ip dosed nude CD-1 mouse after 3 hrs.
Data set [8] in a line: Volume of distribution at steady state in Swiss-Webster mouse. The settings on record: in vivo, read-out: Vdss. Format: ADME, organism-based.
Data set [9] can be described thus: AUC (0 to infinity) in Swiss-Webster mouse. The settings on record: plasma. Further details: time infinity. Format: ADME, organism-based.
Data set [10] is described as follows: Half life in Beagle dog. Type of data set: ADME, organism-based, Canis lupus familiaris. The settings on record: in vivo.
The nature of data set [11]: Half life in Sprague-Dawley rat. Type of data set: ADME, organism-based. The following applies: in vivo.
The nature of data set [12]: Volume of distribution at steady state in Sprague-Dawley rat. Format: ADME, organism-based. The settings on record: in vivo, read-out: Vdss.
Data set [13] is described as follows: Clearance in Sprague-Dawley rat plasma. Format: ADME, organism-based.
The nature of data set [14]: Half life in Swiss-Webster mouse. The following applies: in vivo. Type of data set: ADME, organism-based.
Data set [15] can be described thus: Volume of distribution at steady state in Beagle dog. Type of data set: ADME, organism-based, Canis lupus familiaris. The settings on record: in vivo, read-out: Vdss.
The nature of data set [16]: AUC (0 to infinity) in po dosed Sprague-Dawley rat. Type of data set: ADME, organism-based. The following applies: plasma. More on the design: time infinity, route oral.
A short description of data set [17]: AUC (0 to infinity) in Beagle dog. The following applies: plasma. Type of data set: ADME, organism-based, Canis lupus familiaris. More on the design: time infinity.
The subject of data set [18] is Mus musculus. The experiment in a line: Toxicity in human HCT116 cells xenografted CD1 mouse assessed as body weight loss at 100 mg/kg, po after 21 days. More on the design: dose 100 mg/kg, route oral. Type of data set: organism-based, HCT-116. The following applies: in vivo, 504 h. A general note: Xenograft models place foreign cells or tissue in a host animal.
Data set [19] deals with HCT-116. The experiment in a line: Antitumor activity against human HCT116 cells xenografted in po dosed mouse assessed as reduction in tumor growth dosed daily for 21 days. Format: functional, organism-based.

Take `COP(=O)(c1ccccc1)c1ccc(C(=O)Nc2cc(-c3cccs3)ccc2N)cc1` (stereo not drawn): the pIC50 (usually the IC50 on a negative log10 scale, so that one unit is a factor of ten) in data set [1] was 7.54. Besides, the Cmax (usually the highest concentration seen after dosing) in data set [2] turned out to be 11 µM. Besides, the AUC – broadly, the area under the concentration-time curve, a measure of exposure – in data set [3] was 12 µM·h. Also, in data set [4], it took 0.38 µM to inhibit growth by half (GI50).
Turning to `CC(C)P(=O)(Cc1ccc(C(=O)Nc2cc(-c3cccs3)ccc2N)cc1)C(C)C`, the pIC50 in data set [1] was 7.96. In data set [2], this molecule yielded a Cmax of 1.9 µM. Besides, the exposure (AUC) in data set [3] was determined as 1.3 µM·h. In addition, it took 0.27 µM to inhibit growth in data set [4] by half (GI50).
With `COP(=O)(Cc1cccc(C(=O)Nc2cc(-c3cccs3)ccc2N)c1)c1ccccc1` (stereo not drawn), in data set [1], the negative logarithm of the IC50 (pIC50) is 6.85. The GI50 (in general, the concentration that inhibits growth by half) in data set [4] is 8.6 µM.
In data set [1], `CCOP(=O)(OCC)c1ccc(C(=O)Nc2cc(-c3cccs3)ccc2N)cc1` gave a negative logarithm of the IC50 (pIC50) of 7.66. In [4], this molecule gave a GI50 of 0.41 µM.
In [1], `CCP(=O)(Cc1cccc(C(=O)Nc2cc(-c3cccs3)ccc2N)c1)OC` (stereo not drawn) gave a pIC50 of 7.05. In addition, growth in data set [4] was halved (GI50) at 6 µM.
The corresponding values for `CCOP(=O)(O)c1ccc(C(=O)Nc2cc(-c3cccs3)ccc2N)cc1` are 7.38 and over 20 µM.
The corresponding values for `COP(=O)(Cc1ccc(C(=O)Nc2cc(-c3cccs3)ccc2N)cc1)c1ccccc1` (stereo not drawn) are 7.70 and 0.36 µM.
Consider `CCP(=O)(CC)Cc1ccc(C(=O)Nc2cc(-c3cccs3)ccc2N)cc1`, for which, in [1], the pIC50 is 8.05. The peak concentration (Cmax) in data set [2] came out at 14 µM. The same molecule showed an AUC in [3] of 17 µM·h. The molecule further came in with a GI50 in data set [4] of 0.2 µM.
As for `CCOP(=O)(O)Cc1ccc(C(=O)Nc2cc(-c3cccs3)ccc2N)cc1`, in [1], the pIC50 was 7.42. In data set [4], this molecule gave a GI50 of over 20 µM.
`CCOP(C)(=O)Cc1ccc(C(=O)Nc2cc(-c3cccs3)ccc2N)cc1` (stereo not drawn): in data set [1], the pIC50 was 7.80. For the same molecule, the maximum concentration (Cmax) in data set [2] came out at 31 µM. In data set [3], the AUC was 50 µM·h. The outcome in [5] was inactive. The GI50 in data set [4] worked out at 0.33 µM.
On to `Nc1ccc(-c2cccs2)cc1NC(=O)c1ccc(CP(=O)(O)c2ccccc2)cc1`, for which the negative logarithm of the IC50 (pIC50) in [1] is 7.55. The molecule also registered a GI50 in [4] of over 20 µM.
Take `CCOP(=O)(Cc1ccc(C(=O)Nc2cc(-c3cccs3)ccc2N)cc1)OCC`: in [6], the bioavailability – broadly, the share of a dose that reaches the circulation, judged against a reference dose that is usually intravenous – is 45%. The molecule also returned a concentration at 3 h in [7] of 1.54 µM. Moreover, the Vd in [8] worked out at 20.1 L/kg; in [12] it was 7.27 L/kg; in data set [15], 2.85 L/kg. Further, the results for the AUC(0-inf) in data set [9], in data set [16] and in data set [17] were 0.17 µM·h, 4.4 µM·h and 0.25 µM·h, respectively. The pIC50 in data set [1] was 7.89. The half-life (as a rule, how long it takes for the measured level to halve) was 0.43 h in data set [10], 5.5 h in data set [11] and 55 h in data set [14]. This molecule also gave a GI50 in data set [4] of 0.25 µM. Further, in [13], the clearance (in general, a measure of how efficiently the substance is removed, as volume per time) was found to be 15.8 mL/min/kg.
As for `CP(=O)(Cc1ccc(C(=O)Nc2cc(-c3cccs3)ccc2N)cc1)OCc1cccnc1` (stereo not drawn), the pIC50 in data set [1] is 8.46. In [2], this molecule yielded a Cmax of 8.8 µM. In data set [3], this molecule had an AUC of 16 µM·h. In [4], this molecule had a GI50 of 0.13 µM.
In data set [1], `CCP(=O)(Cc1ccc(C(=O)Nc2cc(-c3cccs3)ccc2N)cc1)OC` (stereo not drawn) showed a pIC50 of 8.15. Also, growth in data set [4] was halved (GI50) at 0.13 µM.
As to `COP(C)(=O)c1ccc(C(=O)Nc2cc(-c3cccs3)ccc2N)cc1` (stereo not drawn), in data set [1], the pIC50 was 7.28. The same molecule gave a Cmax in [2] of 39 µM. Besides, the AUC in [3] stood at 60 µM·h. For the same molecule, the GI50 in data set [4] is 0.42 µM.
In turn, `CCP(=O)(CC)Cc1cccc(C(=O)Nc2cc(-c3cccs3)ccc2N)c1` showed a pIC50 in [1] of 6.57. The molecule further returned a GI50 in [4] of over 20 µM.
As to `CCOP(=O)(c1ccccc1)c1ccc(C(=O)Nc2cc(-c3cccs3)ccc2N)cc1` (stereo not drawn), the pIC50 in [1] was 7.68. This molecule displayed a Cmax in data set [2] of 0.56 µM. Besides, the AUC in data set [3] was determined as 0.91 µM·h. This molecule also showed a GI50 in data set [4] of 0.17 µM.
Turning to `COP(C)(=O)Cc1ccc(C(=O)Nc2cc(-c3cccs3)ccc2N)cc1` (stereo not drawn), the pIC50 in data set [1] is 7.27. Further, the Cmax in data set [2] was determined as 88 µM. Further, the Activity in data set [18] is 22%; in data set [19], “Dose-dependent effect”. Besides, in data set [3], the exposure (AUC) was determined as 115 µM·h. For the same molecule, the result in [5] was Active. Further, growth in [4] was halved (GI50) at 0.16 µM.
`CCOP(=O)(Cc1cccc(C(=O)Nc2cc(-c3cccs3)ccc2N)c1)OCC` had a negative-log IC50 (pIC50) in [1] of 7.64. In [4], this molecule showed a GI50 of 2.5 µM.
In data set [1], `CCOP(C)(=O)c1ccc(C(=O)Nc2cc(-c3cccs3)ccc2N)cc1` (stereo not drawn) gave a pIC50 of 7.85. The same molecule registered a Cmax in [2] of 43 µM. The same molecule came in with an AUC in data set [3] of 44 µM·h. This molecule showed a GI50 in data set [4] of 0.46 µM.
As for `CCOP(=O)(CC)Cc1ccc(C(=O)Nc2cc(-c3cccs3)ccc2N)cc1` (stereo not drawn), the pIC50 in data set [1] is 8.19. The molecule further returned a Cmax in data set [2] of 17 µM. The AUC in [3] worked out at 17 µM·h. For the same molecule, in data set [4], it took 0.24 µM to inhibit growth by half (GI50).
